{"source": "patent US6656921B1", "about": "“Use of zinc hyaluronate against peptic ulcer” (Richter Gedeon Vegyeszeti Gyar RT., priority 1997, dated 2003)", "assay_type_in_all_cases": "in vivo, rat", "key": {"[1]": {"test_system": "indomethacin induced gastric lesion", "experiment": "Inhibition of indomethacin induced gastric lesion", "details": "for Inhibition: 30 min before indomethacin; for Lesion number/stomach ± S.E.M.: 30 min before indomethacin 40 mg/kg s.c.", "procedure": "2. Inhibition of Indomethacin Induced Gastric Lesion Female RG Wistar rats weighing between 120-150 g were used. Before the experiments animals were fasted for 24 hours but received water ad libitum. Test compounds were given orally, 30 minutes later the animals were treated subcutaneously with indomethacin at a dose of 40 mg/kg. Four hours after the irritating indomethacin administration the animals were killed by cervical dislocation. The stomachs were removed, opened along the greater curvature and the hemorrhagic lesions were counted on the glandular stomach.\nED50 value represents the dose which protects the stomach by 50 % from the damaging effect of indomethacin."}, "[2]": {"test_system": "platelet activating factor (PAF) induced gastric lesion", "experiment": "Inhibition of gastric damage induced by platelet activating factor (PAF)", "details": "for Inhibition: 30 min before PAF; for Lesion score/stomach ± S.E.M.: 30 min before PAF infusion, score 0-3", "procedure": "Male, RG-Wistar rats weighing between 200-250 g were used. Before the experiments animals were fasted for 24 hours but received water ad libitum. Experiments were carried out according to the technique similar to that described by Wallace and Whittle (1986). [Br.J.Pharmac., 89,415, (1986)]. Animals were anaesthetized by intraperitoneal administration of urethane at a dose of 1 g/kg in a volume of 10 ml/kg. Femoral vein was then prepared and cannulated for administration of ulcerogenic PAF. After the surgery PAF was infused intravenously at a rate of 0.1 ml/min for ten minutes at a dose of 200 ng/kg/min. Test compounds were given 30 minutes before the PAF challenge. One hour after the infusion of PAF animals were sacrificed by cervical dislocation; their stomachs were removed and opened along the greater curvature. The hemorrhagic erosions were evaluated by a zero to three scoring system."}, "[3]": {"test_system": "stress-induced gastric lesion", "experiment": "Inhibition of stress (cold-restraint) induced gastric lesions", "details": "for Lesion score/stomach ± S.E.M.: 30 min before cold-restraint stress, score 0-3; for Inhibition: 30 min before stress", "procedure": "Female RG Wistar rats weighing between 120-150 g were used. Before the experiments animals were fasted for 24 hours but received water ad libitum. Experiments were carried out according to the technique similar to that described by Senay et al., (1967). [Proc. Soc. Exp. Biol. Med.124,1221, (1967)].\nTest compounds were given orally. 30 minutes later the animals were immobilized in plastic restraint boxes then placed into a refrigerator at 4° C.-8° C. temperature. Four hours later the animals were removed from both the refrigerator and the restraint boxes and one hour later they were sacrificed by cervical dislocation. The stomachs were removed, opened along the greater curvature and hemorrhagic lesions were scored by a zero to 3 scale: stomachs free from any damage were given a score of 0, stomachs with only a few hemorrhagic lesion were given a score of 1, stomachs with more lesion numbers than 10 were given a score of 2, and stomachs with a lot of lesions were characterized with a score of 3.\nThe ED50 were defined as the dose needed to decrease the score of gastric lesions by 50%."}, "[4]": {"test_system": "gastrointestinal motility", "experiment": "Gastrointestinal motility in the charcoal propulsion test", "details": "100 mg/kg p.o.", "procedure": "Experiments were performed on female, RG-Wistar rats weighing 120-140 g, which were fasted for 24 hours but received water ad libitum.\nThe experimental procedure was carried out according to the technique similar to that described of P. A. Janssen and A. J. Jageneau [J. Pharm. Pharmacel. 9, 381 (1957)].\nTest compounds were given orally at a dose of 100 mg/kg. Control animals received physiological saline solution instead of test compounds. 30 minutes later, the 5% (w/v) charcoal suspension was administered orally at a volume of 0.5 ml/animal. 60 minutes after the charcoal treatment the animals were sacrificed by cervical dislocation. The intestine from pylorus to cecum was removed, its lengths measured along with the distance traversed by the charcoal meal.\nMotility was expressed as the ratio of length of charcoal suspension to the length of the whole intestine."}, "[5]": {"test_system": "acidified ethanol induced gastric lesion", "experiment": "Inhibition of acidified-ethanol induced gastric lesions", "procedure": "Female RG-Wistar rats weighing between 120-150 g were used. Before experiments animals were fasted for 24 hours but received water ad libitum.\nExperiments were carried out according to the technique similar to that described by A. Robert [Gastroenterology 77, […] (1979)].\nAcidified ethanol (mixture of 50 ml of abs. ethanol and 1 ml of concentrated HCI) was used as strong irritants. Dose of acidified ethanol was 0.5 ml/100 g body weight with intragastric administration. Test compounds were given orally 30 minutes before the acidified ethanol challenge. When the duration of action of test compound was studied test material was administered 60 or 120 minutes earlier to the irritating effect induced by acidified-ethanol effect. One hour after the acidified ethanol treatment rats were sacrificed by cervical dislocation. Stomachs were removed and opened along the greater curvature and mildly washed down. The longitudinal hemorrhagic lesions were assayed by length.\nED50 value was defined as the dose that gave a 50% decrease in ulcer index."}, "[6]": {"details": "10 mg/kg p.o., 30 min before acidified ethanol"}, "[7]": {"details": "25 mg/kg p.o., 30 min before acidified ethanol"}, "[8]": {"details": "25 mg/kg p.o., pretreatment time 60 minutes"}, "[9]": {"details": "25 mg/kg p.o., pretreatment time 120 minutes"}, "[10]": {"details": "50 mg/kg p.o., 30 min before acidified ethanol"}, "[11]": {"details": "50 mg/kg p.o., pretreatment time 60 minutes"}, "[12]": {"details": "50 mg/kg p.o., pretreatment time 120 minutes"}, "[13]": {"details": "100 mg/kg p.o., 30 min before acidified ethanol"}, "[14]": {"details": "100 mg/kg p.o., pretreatment time 60 minutes"}, "[15]": {"details": "100 mg/kg p.o., pretreatment time 120 minutes"}}, "note": "Marks after values point to notes of the source that are not given here.", "data": [{"substance": "zinc hyaluronate [Zinc hyaluronate (M)]", "values": [{"measurement": "Inhibition", "setting": "[1]; 1.0 mg/kg p.o.", "result": 15.7, "unit": "%"}, {"measurement": "Lesion number/stomach ± S.E.M.", "setting": "[1]; 1.0 mg/kg p.o.", "result": "15.6 ± 6.2"}, {"measurement": "Inhibition", "setting": "[1]; 10.0 mg/kg p.o.", "result": 68.1, "unit": "%"}, {"measurement": "Lesion number/stomach ± S.E.M.", "setting": "[1]; 10.0 mg/kg p.o.", "result": "5.9 ± 1.9"}, {"measurement": "Inhibition", "setting": "[1]; 100 mg/kg p.o.", "result": 89.2, "unit": "%"}, {"measurement": "Lesion number/stomach ± S.E.M.", "setting": "[1]; 100 mg/kg p.o.", "result": "2.0 ± 0.9"}, {"measurement": "ED50 (dose protecting the stomach by 50% from indomethacin)", "setting": "[1]; p.o.", "result": 6.2, "unit": "mg/kg"}, {"measurement": "Inhibition", "setting": "[2]; 50 mg/kg p.o.", "result": 27.3, "unit": "%"}, {"measurement": "Lesion score/stomach ± S.E.M.", "setting": "[2]; 50 mg/kg p.o.", "result": "1.6 ± 0.4"}, {"measurement": "Inhibition", "setting": "[2]; 100 mg/kg p.o.", "result": 40.9, "unit": "%"}, {"measurement": "Lesion score/stomach ± S.E.M.", "setting": "[2]; 100 mg/kg p.o.", "result": "1.3 ± 0.2"}, {"measurement": "Protection against ulcerogenic effect of PAF (in words)", "setting": "[2]; rat, in vivo", "result": "strongly reduced the ulcerogenic effect of PAF"}, {"measurement": "Lesion score/stomach ± S.E.M.", "setting": "[3]; 25 mg/kg p.o.", "result": "1.0 ± 0.3"}, {"measurement": "Inhibition", "setting": "[3]; 25 mg/kg p.o.", "result": 41.2, "unit": "%"}, {"measurement": "Lesion score/stomach ± S.E.M.", "setting": "[3]; 50 mg/kg p.o.", "result": "0.4 ± 0.2"}, {"measurement": "Inhibition", "setting": "[3]; 50 mg/kg p.o.", "result": 76.5, "unit": "%"}, {"measurement": "Lesion score/stomach ± S.E.M.", "setting": "[3]; 100 mg/kg p.o.", "result": "0*"}, {"measurement": "Inhibition", "setting": "[3]; 100 mg/kg p.o.", "result": 100, "unit": "%"}, {"measurement": "ED50 (dose decreasing score of gastric lesions by 50%)", "setting": "[3]; oral administration", "result": 29.4, "unit": "mg/kg"}, {"measurement": "Effect on the intestinal motility (in words)", "setting": "[4]", "result": "absence of change in activity"}, {"measurement": "Ratio of charcoal suspension to the whole intestinal part", "setting": "[4]", "result": "0.83 ± 0.03"}, {"measurement": "Propulsion of charcoal suspension mm ± S.E.M.", "setting": "[4]; 30 min before charcoal, 60 min after charcoal", "result": "655 ± 3.9", "unit": "mm"}, {"measurement": "Inhibition", "setting": "[5]; [6]", "result": 47.7, "unit": "%"}, {"measurement": "Lesion length/stomach mm ± S.E.M.", "setting": "[5]; [6]", "result": "57.9 ± 8.2", "unit": "mm"}, {"measurement": "Inhibition", "setting": "[5]; [7]", "result": 69.9, "unit": "%"}, {"measurement": "Lesion length/stomach mm ± S.E.M.", "setting": "[5]; [7]", "result": "33.3 ± 7.7", "unit": "mm"}, {"measurement": "Inhibition", "setting": "[5]; [8]", "result": 28.7, "unit": "%"}, {"measurement": "Lesion length/stomach mm ± S.E.M.", "setting": "[5]; [8]", "result": "49.7 ± 5.9", "unit": "mm"}, {"measurement": "Inhibition", "setting": "[5]; [9]", "result": 12.2, "unit": "%"}, {"measurement": "Lesion length/stomach mm ± S.E.M.", "setting": "[5]; [9]", "result": "53.2 ± 7.7", "unit": "mm"}, {"measurement": "Inhibition", "setting": "[5]; [10]", "result": 88.3, "unit": "%"}, {"measurement": "Lesion length/stomach mm ± S.E.M.", "setting": "[5]; [10]", "result": "13.0 ± 3.0", "unit": "mm"}, {"measurement": "Inhibition", "setting": "[5]; [11]", "result": 45.6, "unit": "%"}, {"measurement": "Lesion length/stomach mm ± S.E.M.", "setting": "[5]; [11]", "result": "37.9 ± 12.2", "unit": "mm"}, {"measurement": "Inhibition", "setting": "[5]; [12]", "result": 45.9, "unit": "%"}, {"measurement": "Lesion length/stomach mm ± S.E.M.", "setting": "[5]; [12]", "result": "32.8 ± 7.5", "unit": "mm"}, {"measurement": "Inhibition", "setting": "[5]; [13]", "result": 97.6, "unit": "%"}, {"measurement": "Lesion length/stomach mm ± S.E.M.", "setting": "[5]; [13]", "result": "2.7 ± 1.4", "unit": "mm"}, {"measurement": "Inhibition", "setting": "[5]; [14]", "result": 93.4, "unit": "%"}, {"measurement": "Lesion length/stomach mm ± S.E.M.", "setting": "[5]; [14]", "result": "4.6 ± 1.7", "unit": "mm"}, {"measurement": "Inhibition", "setting": "[5]; [15]", "result": 83.0, "unit": "%"}, {"measurement": "Lesion length/stomach mm ± S.E.M.", "setting": "[5]; [15]", "result": "10.3 ± 4.6", "unit": "mm"}, {"measurement": "ED50 (dose giving 50% decrease in ulcer index)", "setting": "[5]; p.o., 30 min pretreatment", "result": 10.4, "unit": "mg/kg"}]}]}
